According to patent US9156872B2, “2′-azido substituted nucleoside derivatives and methods of use thereof for the treatment of viral diseases” (priority 2011, dated 2015):

tested on: HCV replicon cells; assay: Cell-based HCV replicon assay (replicon RNA by Taqman real time PCR); conditions: HCV replicon 1b, cells harvested on day 3; read-out: 1b EC50

Compound | EC50 [nM]
CCOc1nc(N)nc2c1ncn2[C@@H]1O[C@@H]2COP(=O)(OC3CCC3)O[C@H]2[C@@]1(C)N=[N+]=[N-] (single isomer, unassigned) [Compound 108] | 24100
C[C@@]1(N=[N+]=[N-])[C@@H]2OP(=O)(OC3CCC3)OC[C@H]2O[C@H]1n1ccc(=O)[nH]c1=O (stereo partly drawn) [Compound 84] | 51000
CCCOP1(=O)OC[C@H]2O[C@@H](n3ccc(=O)[nH]c3=O)[C@](C)(N=[N+]=[N-])[C@@H]2O1 (single isomer, unassigned) [Compound 565] | > 100000

same assay, conditions: Hepatitis C virus, 72 h, HCV replicon 1b, cells harvested on day 3; read-out: 1b EC50

Compound | EC50 [nM]
COc1nc(N)nc2c1ncn2[C@@H]1O[C@@H]2COP(=O)(OC3CCC3)O[C@H]2[C@@]1(C)N=[N+]=[N-] (single isomer, unassigned) [Compound 102] | 11000
CC(C)OP1(=O)OC[C@H]2O[C@@H](n3ccc(N)nc3=O)[C@](C)(N=[N+]=[N-])[C@@H]2O1 (stereo partly drawn) [Compound 19] | > 100000
CC(C)OP1(=O)OC[C@H]2O[C@@H](n3ccc(=O)[nH]c3=O)[C@](C)(N=[N+]=[N-])[C@@H]2O1 (stereo partly drawn) [Compound 43] | > 100000
C[C@@]1(N=[N+]=[N-])[C@@H]2OP(=O)(OC3CCC3)OC[C@H]2O[C@H]1n1ccc(=O)[nH]c1=O (stereo partly drawn) [Compound 83] | 63000
CCCOP1(=O)OC[C@H]2O[C@@H](n3cnc4c(OCC)nc(N)nc43)[C@](C)(N=[N+]=[N-])[C@@H]2O1 (stereo partly drawn) [Compound 24] | > 100000
C[C@@]1(N=[N+]=[N-])[C@H](O)[C@@H](CO)O[C@H]1n1cnc2c(N3CCC3)nc(N)nc21 [Compound 137] | > 100000

same assay, conditions: Hepatitis C virus, 72 h, read-out: 1b EC50

Compound | EC50 [nM]
C[C@H](NP(=O)(OC[C@H]1O[C@@H](n2ccc(=O)[nH]c2=O)[C@](C)(N=[N+]=[N-])[C@@H]1O)Oc1ccccc1)C(=O)O[C@H](C)c1ccccc1 (single isomer, unassigned) [Compound 302] | 24900
CC(C)OC(=O)[C@H](C)NP(=O)(OC[C@H]1O[C@@H](n2cnc3c(N4CCC4)nc(N)nc32)[C@](C)(N=[N+]=[N-])[C@@H]1O)Oc1ccccc1 (stereo partly drawn) [Compound 392] | 5600
COc1nc(N)nc2c1ncn2[C@@H]1O[C@H](COP(=O)(N[C@@H](C)C(=O)OCC(C)C)Oc2ccccc2)[C@@H](O)[C@@]1(C)N=[N+]=[N-] (stereo partly drawn) [Compound 245] | 400
CCCOC(=O)[C@H](C)NP(=O)(OC[C@H]1O[C@@H](n2cnc3c(OC)nc(N)nc32)[C@](C)(N=[N+]=[N-])[C@@H]1O)Oc1ccccc1 (stereo partly drawn) [Compound 78] | 1100
CCCOC(=O)[C@H](C)NP(=O)(OC[C@H]1O[C@@H](n2cnc3c(OC)nc(N)nc32)[C@](C)(N=[N+]=[N-])C1O)Oc1ccccc1 (single isomer, unassigned) [Compound 287] | 900
CCOC(=O)[C@H](C)NP(=O)(OC[C@H]1O[C@@H](n2cnc3c(OCC)nc(N)nc32)[C@](C)(N=[N+]=[N-])[C@@H]1O)Oc1ccc(F)cc1 (stereo partly drawn) [Compound 141] | 200
CCCCOC(=O)[C@H](C)NP(=O)(OC[C@H]1O[C@@H](n2cnc3c(OCC)nc(N)nc32)[C@](C)(N=[N+]=[N-])[C@@H]1O)Oc1ccccc1 (single isomer, unassigned) [Compound 167] | 1200
COc1nc(N)nc2c1ncn2[C@@H]1O[C@H](COP(=O)(N[C@@H](C)C(=O)OCC(C)C)Oc2ccc(Cl)cc2)[C@@H](O)[C@@]1(C)N=[N+]=[N-] (stereo partly drawn) [Compound 285] | 1100
COC(=O)[C@H](C)NP(=O)(OC[C@H]1O[C@@H](n2ccc(=O)[nH]c2=O)[C@](C)(N=[N+]=[N-])[C@@H]1O)Oc1ccccc1Cl (stereo partly drawn) [Compound 40] | 4000
C[C@@]1(N=[N+]=[N-])[C@@H]2OP(=O)(Oc3ccccc3)OC[C@H]2O[C@H]1n1ccc(N)nc1=O (stereo partly drawn) [Compound 65] | 56000
CCCCOC(=O)[C@H](C)NP(=O)(OC[C@H]1O[C@@H](n2cnc3c(OC)nc(N)nc32)[C@](C)(N=[N+]=[N-])C1O)Oc1ccccc1 (single isomer, unassigned) [Compound 262] | 2400
CCOc1nc(N)nc2c1ncn2[C@@H]1O[C@@H]2COP(=O)(OC)O[C@H]2[C@@]1(C)N=[N+]=[N-] (stereo partly drawn) [Compound 25] | 13000
CCCOC(=O)[C@H](C)N[P@@](=O)(OC[C@H]1O[C@@H](n2ccc(=O)[nH]c2=O)[C@](C)(N=[N+]=[N-])[C@@H]1O)Oc1cccc2ccccc12 (single isomer, unassigned) [Compound 375] | 800
Cc1ccc(C(C)C)cc1OP(=O)(N[C@@H](C)C(=O)OC(C)C)OC[C@H]1O[C@@H](n2ccc(=O)[nH]c2=O)[C@](C)(N=[N+]=[N-])[C@@H]1O (stereo partly drawn) [Compound 177] | 12000
CCOC(=O)[C@H](C)NP(=O)(OC[C@H]1O[C@@H](n2ccc(=O)[nH]c2=O)[C@](C)(N=[N+]=[N-])[C@@H]1O)Oc1ccc(F)cc1 (stereo partly drawn) [Compound 140] | 1400
CCOc1nc(N)nc2c1ncn2[C@@H]1O[C@H](COP(=O)(N[C@@H](C)C(=O)OC2CCCCC2)Oc2ccc(Cl)cc2)[C@@H](O)[C@@]1(C)N=[N+]=[N-] (stereo partly drawn) [Compound 307] | 33000
CCCCOC(=O)[C@H](C)NP(=O)(OC[C@H]1O[C@@H](n2ccc(=O)[nH]c2=O)[C@](C)(N=[N+]=[N-])[C@@H]1O)Oc1cccc2ccccc12 (stereo partly drawn) [Compound 6] | 1100
C[C@H](NP(=O)(OC[C@H]1O[C@@H](n2ccc(N)nc2=O)[C@](C)(N=[N+]=[N-])[C@@H]1O)Oc1ccccc1)C(=O)OCc1ccccc1 (single isomer, unassigned) [Compound 191] | 25000
COC(=O)[C@H](C)NP(=O)(OC[C@H]1O[C@@H](n2cnc3c(OC)nc(N)nc32)[C@](C)(N=[N+]=[N-])[C@@H]1O)Oc1ccc(Cl)c(Cl)c1 (stereo partly drawn) [Compound 248] | 1000
CCCCOC(=O)[C@H](C)NP(=O)(OC[C@H]1O[C@@H](n2ccc(=O)[nH]c2=O)[C@](C)(N=[N+]=[N-])[C@@H]1O)Oc1cccc2ccccc12 (single isomer, unassigned) [Compound 155] | 2200
COc1nc(N)nc2c1ncn2[C@@H]1O[C@H](COP(=O)(N[C@@H](C)C(=O)OC(C)C)Oc2ccc(F)cc2)[C@@H](O)[C@@]1(C)N=[N+]=[N-] (stereo partly drawn) [Compound 243] | 1400

same assay, conditions: read-out: 1b EC50

Compound | EC50 [nM]
C[C@H](NP(=O)(OC[C@H]1O[C@@H](n2ccc(=O)[nH]c2=O)[C@](C)(N=[N+]=[N-])[C@@H]1O)Oc1ccc(F)cc1)C(=O)OC1CCCCC1 (stereo partly drawn) [Compound 90] | 2100
COC(=O)[C@H](C)NP(=O)(OC[C@H]1O[C@@H](n2ccc(=O)[nH]c2=O)[C@](C)(N=[N+]=[N-])[C@@H]1O)Oc1ccc(Cl)cc1 (stereo partly drawn) [Compound 325] | 4000
COC(=O)[C@H](C)NP(=O)(OC[C@H]1O[C@@H](n2cnc3c(OC)nc(N)nc32)[C@](C)(N=[N+]=[N-])C1O)Oc1ccccc1 (single isomer, unassigned) [Compound 261] | 900
CCCCOC(=O)[C@H](C)NP(=O)(OC[C@H]1O[C@@H](n2cnc3c(OCC)nc(N)nc32)[C@](C)(N=[N+]=[N-])[C@@H]1O)Oc1ccccc1 (single isomer, unassigned) [Compound 168] | 1500
COc1nc(N)nc2c1ncn2[C@@H]1O[C@H](COP(=O)(N[C@@H](C)C(=O)OC(C)C)Oc2ccccc2Cl)[C@@H](O)[C@@]1(C)N=[N+]=[N-] (single isomer, unassigned) [Compound 281] | 12000
CCOc1nc(N)nc2c1ncn2[C@@H]1O[C@H](COP(=O)(N[C@@H](C)C(=O)OC)Oc2ccc(F)cc2)[C@@H](O)[C@@]1(C)N=[N+]=[N-] (single isomer, unassigned) [Compound 174] | 500
CC(C)COC(=O)[C@H](C)NP(=O)(OC[C@H]1O[C@@H](n2ccc(=O)[nH]c2=O)[C@](C)(N=[N+]=[N-])[C@@H]1O)Oc1ccccc1 (stereo partly drawn) [Compound 37] | 3500
CCCCOC(=O)[C@H](C)NP(=O)(OC[C@H]1O[C@@H](n2ccc(=O)[nH]c2=O)[C@](C)(N=[N+]=[N-])[C@@H]1O)Oc1cccc2ccccc12 (single isomer, unassigned) [Compound 156] | 1500
COC(=O)[C@H](C)NP(=O)(OC[C@H]1O[C@@H](n2cnc3c(OC)nc(N)nc32)[C@](C)(N=[N+]=[N-])[C@@H]1O)Oc1ccc(F)cc1 (single isomer, unassigned) [Compound 267] | 700
CCOc1nc(N)nc2c1ncn2[C@@H]1O[C@H](COP(=O)(N[C@@H](C)C(=O)OC)Oc2ccccc2Cl)[C@@H](O)[C@@]1(C)N=[N+]=[N-] (single isomer, unassigned) [Compound 310] | 930
COC(=O)[C@H](C)NP(=O)(OC[C@H]1O[C@@H](n2ccc(N)nc2=O)[C@](C)(N=[N+]=[N-])[C@@H]1O)Oc1ccc(F)cc1 (single isomer, unassigned) [Compound 187] | 22000
C[C@H](NP(=O)(OC[C@H]1O[C@@H](n2ccc(=O)[nH]c2=O)[C@](C)(N=[N+]=[N-])[C@@H]1O)Oc1ccccc1)C(=O)OCc1ccccc1 (single isomer, unassigned) [Compound 301] | 2700
CCOC(=O)[C@H](C)NP(=O)(OC[C@H]1O[C@@H](n2cnc3c(OCC)nc(N)nc32)[C@](C)(N=[N+]=[N-])[C@@H]1O)Oc1ccc(F)cc1 (single isomer, unassigned) [Compound 176] | 300
COC(=O)[C@H](C)NP(=O)(OC[C@H]1O[C@@H](n2cnc3c(OC)nc(N)nc32)[C@](C)(N=[N+]=[N-])C1O)Oc1cccc2ccccc12 (single isomer, unassigned) [Compound 255] | 1200
CCOC(=O)[C@H](C)NP(=O)(OC[C@H]1O[C@@H](n2ccc(=O)[nH]c2=O)[C@](C)(N=[N+]=[N-])[C@@H]1O)Oc1ccccc1 (single isomer, unassigned) [Compound 151] | 5100
COC(=O)[C@H](C)NP(=O)(OC[C@H]1O[C@@H](n2ccc(=O)[nH]c2=O)[C@](C)(N=[N+]=[N-])[C@@H]1O)Oc1ccc(Cl)cc1 (single isomer, unassigned) [Compound 327] | 1700
COC(=O)[C@H](C)NP(=O)(OC[C@H]1O[C@@H](n2ccc(N)nc2=O)[C@](C)(N=[N+]=[N-])[C@@H]1O)Oc1ccc(Cl)cc1 (single isomer, unassigned) [Compound 186] | 2000
C[C@H](NP(=O)(OC[C@H]1O[C@@H](n2ccc(N)nc2=O)[C@](C)(N=[N+]=[N-])[C@@H]1O)Oc1ccccc1)C(=O)OC1CCCC1 (stereo partly drawn) [Compound 336] | 15000
